IC50 data for two molecules are collected here from patent US20220396577A1, “NOVEL SUBSTITUTED 1,3-8-TRIAZASPIRO[4,5] DECANE-2,4-DIONE COMPOUNDS AS INDOLEAMINE 2,3-DIOXYGENASE (IDO) AND/OR TRYPTOPHAN 2,3-DIOXYGENASE (TDO) INHIBITORS” (Merck Sharp & Dohme LLC, priority 2019, published 2022).

One assay deals with CDK9 (Cyclin T1) (Homo sapiens, UniProt P50750). Put plainly: Off-target kinase panel, ADAPTA: CDK9 (Cyclin T1). As to conditions: read-out: Estimated IC50 (uM) CDK9 (Cyclin T1). Format: biochemical. From the text:
The activity data was obtained in a panel of 265 and 264 for compounds 1-1 and CC-1, respectively, using the ZLYTE and ADAPTA assay methods indicated in the table below.
The Adapta universal kinase assay is a homogenous, fluorescent based immunoassay for the detection of ADP. In contrast to ATP depletion assays, the Adapta assay is highly sensitive to ADP formation such that a majority of the signal change occurs in the first 10-20% conversion of ATP to ADP. This makes the Adapta universal kinase assay well suited for use with low activity kinases.
The principle of the Adapta universal kinase assay is outlined below. The assay itself can be divided into two phases: a kinase reaction phase, and an ADP detection phase. In the kinase reaction phase, all components required for the kinase reaction are added to the well, and the reaction is allowed to incubate for 60 minutes. After the reaction, a detection solution consisting of a europium labeled anti-ADP antibody, an Alexa Fluor 647 labeled ADP tracer, and EDTA (to stop the kinase reaction) is added to the assay well. […]
ADP formation is determined by calculating the emission ratio from the assay well. The emission ratio is calculated by dividing the intensity of the tracer (acceptor) emission by the intensity of the Eu (donor) emission at 615 nm as shown in the equation below. […]
12. Read on fluorescence plate reader and analyze the data.

In a further assay the target is IDO1 (Homo sapiens, UniProt P14902). Put plainly: IDO1 Cellular Assay in HeLa Cells Stimulated with IFNγ (B). As to conditions: about 48 h, first value of cell, read-out: IDO hela (B) cell IC50. More on the design: endogenous in cells; host or cells: HeLa cells stimulated with IFNγ. The assay is classed as cell-based. The method, then: HeLa cells were cultured in complete HeLa culture medium (90% EMEM, 10% heat-inactivated fetal bovine serum) and expanded to about 1×10^9 cells. The cells were then collected and frozen down at 1×10^7 cells/vial in 1 mL frozen medium (90% complete HeLa culture medium, 10% DMSO).
Chain of IDO1 (P14902 whole entry): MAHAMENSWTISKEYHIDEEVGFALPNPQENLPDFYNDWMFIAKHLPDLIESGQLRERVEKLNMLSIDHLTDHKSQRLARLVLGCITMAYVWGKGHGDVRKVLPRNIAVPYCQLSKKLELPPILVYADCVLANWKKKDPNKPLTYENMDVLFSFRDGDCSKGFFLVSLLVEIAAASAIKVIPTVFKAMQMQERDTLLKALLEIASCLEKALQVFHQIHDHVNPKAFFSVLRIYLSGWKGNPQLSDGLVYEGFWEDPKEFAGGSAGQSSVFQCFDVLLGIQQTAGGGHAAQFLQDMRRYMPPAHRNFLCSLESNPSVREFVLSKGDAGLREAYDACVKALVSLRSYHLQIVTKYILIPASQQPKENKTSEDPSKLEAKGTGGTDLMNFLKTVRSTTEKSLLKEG
Compounds to be tested were serially diluted in ten 3-fold steps in DMSO starting from 10 mM DMSO stocks in Echo low volume plate(s). Compound dilutions or DMSO alone were then dispensed from the dilution plate(s) into Greiner black 384-well assay plate(s) (catalog #781086, 50 nL/well) using an Echo 550 acoustic liquid handler (Labcyte).
Frozen HeLa cells were thawed and transferred into HeLa assay medium (99% complete HeLa culture medium, 1% Pen/Strep) with 20 mL medium/vial of cells. […] The cells were then counted and adjusted to a density of 2×10^5 cells/mL in HeLa assay medium. […]
HeLa cells with and without IFNγ were dispensed to the respective wells of 384-well assay plates containing the compounds. […] The resulting fluorescence was measured in a Spectramax plate reader (Molecular Devices) with a 400 nm excitation filter and a 510 nm emission filter.
The fluorescence intensity of each well was corrected for the background observed in wells with non-IFNγ-treated cells and was expressed as a fraction of the intensity observed in wells of IFNγ-treated cells and DMSO only. […]

SMILES strings stand for the structures.

Chain of CDK9 (Cyclin T1) (P50750 whole entry): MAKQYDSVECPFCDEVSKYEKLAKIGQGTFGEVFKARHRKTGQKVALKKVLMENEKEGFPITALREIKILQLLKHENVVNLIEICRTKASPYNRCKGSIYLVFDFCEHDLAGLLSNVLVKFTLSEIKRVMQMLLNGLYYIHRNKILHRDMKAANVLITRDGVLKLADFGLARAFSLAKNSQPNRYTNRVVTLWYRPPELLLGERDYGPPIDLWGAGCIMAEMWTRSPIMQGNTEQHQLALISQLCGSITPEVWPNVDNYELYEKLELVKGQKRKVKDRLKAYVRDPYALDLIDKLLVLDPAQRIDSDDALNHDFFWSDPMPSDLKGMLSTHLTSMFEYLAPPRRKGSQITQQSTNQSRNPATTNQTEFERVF
Chain of CDK9 (Cyclin T1) (O60563 whole entry partner): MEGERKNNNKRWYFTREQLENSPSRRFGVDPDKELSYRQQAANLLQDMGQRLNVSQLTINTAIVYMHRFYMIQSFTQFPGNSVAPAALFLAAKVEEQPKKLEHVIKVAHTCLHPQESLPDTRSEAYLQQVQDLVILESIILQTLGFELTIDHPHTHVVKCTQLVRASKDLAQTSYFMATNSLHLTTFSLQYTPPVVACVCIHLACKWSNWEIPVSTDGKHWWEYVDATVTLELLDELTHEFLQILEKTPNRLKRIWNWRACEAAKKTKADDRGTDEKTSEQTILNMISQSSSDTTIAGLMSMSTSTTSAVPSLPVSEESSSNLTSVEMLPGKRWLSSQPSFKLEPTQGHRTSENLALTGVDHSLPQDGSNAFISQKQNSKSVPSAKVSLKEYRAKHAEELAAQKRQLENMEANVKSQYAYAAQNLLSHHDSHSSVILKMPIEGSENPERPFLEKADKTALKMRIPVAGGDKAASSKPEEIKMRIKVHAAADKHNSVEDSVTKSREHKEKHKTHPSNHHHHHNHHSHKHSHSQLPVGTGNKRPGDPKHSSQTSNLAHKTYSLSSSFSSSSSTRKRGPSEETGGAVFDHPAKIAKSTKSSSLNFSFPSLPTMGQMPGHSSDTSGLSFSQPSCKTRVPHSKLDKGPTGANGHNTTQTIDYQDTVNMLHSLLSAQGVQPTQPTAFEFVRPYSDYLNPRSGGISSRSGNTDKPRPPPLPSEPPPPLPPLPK

Turning to `C[C@@H]1CN(c2cc(Br)cc3[nH]ncc23)CC[C@]12NC(=O)NC2=O` (single isomer, unassigned) [Compound 1-1], the IC50 on CDK9 (Cyclin T1) was more than 2 µM; on IDO1 it was 77 nM.

For `O=C1NC(=O)C2(CCN(c3cc(Cl)cc4[nH]ncc34)CC2)N1` [CC-1], the IC50 on CDK9 (Cyclin T1) is 0.15 µM; on IDO1, 97 nM.

By IC50 is commonly meant the midpoint of a concentration-inhibition curve.
